Laboratory results published in PubChem BioAssay (NCI).
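A five-concentration, 48-hour dose response in 96-well plates underlies each endpoint, interpolated linearly between surrounding concentrations. TGI: total growth inhibition.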

Tests used:
Assay in all cases: NCI-60 cell line screen, 48 h
[1] = test system: EKVX NSCLC
[2] = test system: CCRF-CEM leukemia
[3] = test system: SK-MEL-2 melanoma
[4] = test system: SF-295 CNS
[5] = test system: OVCAR-4 ovarian
[6] = test system: COLO 205 colon
[7] = test system: RXF 393 renal
[8] = test system: HOP-92 NSCLC
[9] = test system: 786-0 renal
[10] = test system: SK-MEL-5 melanoma

SMILES | TGI [1] [µM] | TGI [2] [µM] | TGI [3] [µM] | TGI [4] [µM] | TGI [5] [µM] | TGI [6] [µM] | TGI [7] [µM] | TGI [8] [µM] | TGI [9] [µM] | TGI [10] [µM]
COC(=O)C1Cc2c([nH]c3ccccc23)C(c2cccc(O)c2)N1 (stereo not given) | > 100 | 43.2 | 83.3 | > 100 | > 100 | 90.3 | 55.4 | 79.9 | > 100 | > 100
O=c1[nH]c2cc(C(F)(F)F)ccc2nc1Cc1ccccc1 | > 100 | > 100 | > 100 | > 100 | > 100 | > 100 | 85.8 | > 100 | > 100 | > 100
CC[C@@H](CCCC[C@@H]1CC[C@H]2CC(=O)C[C@@H]12)OC | > 100 | > 100 | > 100 | > 100 | > 100 | > 100 | > 100 | > 100 | > 100 | > 100
Cc1ccc(/C=C2\CN(C)CC3C(c4ccc(C)cc4)=C(C#N)C(=O)NC23)cc1 (stereo not given) | > 50 | > 50 | > 50 | > 50 | > 50 | > 50 | > 50 | > 50 | > 50 | > 50
Nc1nc(Cl)c(C=O)c(NCC2(CO)CC(CCc3ccccc3)C2)n1 (stereo not given) | 14.1 | 31.8 | 19.2 | 27 | 4.21 | 24.2 | 31.5 | 4.46 | 69.5 | 20.3
CC(C)(C)c1cc(C(=O)/C=C/c2ccc(O)c(O)c2O)cc(C(C)(C)C)c1O | 54 | 7.84 | 19.2 | 27.8 | 26.5 | 26.3 | 13.3 | > 42.6 | 28.8 | 19
COc1cc([C@@H]2c3cc4c(cc3[C@H](OC3OC5COC(C(C)C)OC5C(O)C3O)C3COC(=O)[C@@H]32)OCO4)cc(OC)c1O (stereo not given in full) | 47.5 | > 100 | 31.5 | 21.7 | 37.6 | 19.9 | 17.2 | 27.5 | 22.1 | 22.6
CC(CC(=O)CO[C@H]1[C@H](O)[C@@H](O)[C@@H](O)[C@@H]2NC(=O)c3c(cc4c(c3O)OCO4)[C@H]21)OC1OC(CO)C(O)C(O)C1O (stereo not given in full) | 3.46 | 0.582 | 0.859 | 5.65 | 1.27 | 1.16 | 1.8 | 4.57 | 2.92 | 1.48
CN(C)CCN1C(=O)CC[C@@]2(C)C1=CC[C@@H]1[C@@H]2CC[C@@]2(C)[C@H]1CC[C@]2(C)O | > 100 | > 100 | > 100 | > 100 | > 100 | > 100 | > 100 | > 100 | > 100 | > 100
COc1ccc(NC(=O)CC(=O)n2nc(C)c(N=Nc3ccc(C)c(C)c3)c2C)cc1 | 52 | > 100 | > 100 | > 100 | > 100 | > 100 | > 100 | 65.9 | > 100 | > 100
CCN(CC)CCNC(=O)c1ccc([N+](=O)[O-])cc1OC | > 100 | > 100 | > 100 | > 100 | > 100 | > 100 | > 100 | > 100 | > 100 | > 100
COc1c(Cl)ccc(Cl)c1C(=O)NNC(=O)c1c(Cl)c(Cl)c(Cl)c(Cl)c1-c1nc2ccc(C(=O)c3ccccc3)cc2[nH]1 | > 100 | > 100 | > 100 | > 100 | > 100 | > 100 | > 100 | > 100 | > 100 | > 100
Cc1cc(S(N)(=O)=O)c(SCc2nc(N)nc(N(C)C)n2)cc1Cl | > 10 | > 10 | > 10 | > 10 | > 10 | > 10 | > 10 | > 10 | > 10 | > 10
Cn1c(=O)n2n(c1=O)Cc1cccc3cccc(c13)C2 | > 100 | > 100 | > 100 | > 100 | > 100 | > 100 | > 100 | > 100 | > 100 | > 100
S=C(NNC1=NCCCN1)Nc1ccccc1 | > 100 | > 100 | > 100 | > 100 | > 100 | > 100 | > 100 | > 100 | > 100 | > 100
CC(=O)Nc1ccc(Nc2cc(=O)n(C)c(=O)[nH]2)cc1 | > 100 | > 100 | > 100 | > 100 | > 100 | > 100 | > 100 | > 100 | > 100 | > 100
Cc1ccc(-c2sc(-c3ccc(C)cc3)c3c2C2CCC3C2)cc1 | > 50 | > 50 | > 50 | > 50 | > 50 | > 50 | > 50 | > 50 | > 50 | > 50
